Results published in US12544375B2, “Small molecule therapeutic for parkinson's disease paired with a biomarker of therapeutic activity” (The Board of Trustees of the Leland Stanford Junior …, priority 2019, dated 2026).

Target: T1, DMiro (Drosophila melanogaster, UniProt Q8IMX7)
T1 construct: PD flies were fed with 2.5 μM Miro1 Reducer for the indicated time periods and lysed for blotting DMiro; from tissue; host or cells: whole flies (mutant LRRK2, PINK1 null) or heads (mutant SNCA flies)
T1 sequence (Q8IMX7 1-652): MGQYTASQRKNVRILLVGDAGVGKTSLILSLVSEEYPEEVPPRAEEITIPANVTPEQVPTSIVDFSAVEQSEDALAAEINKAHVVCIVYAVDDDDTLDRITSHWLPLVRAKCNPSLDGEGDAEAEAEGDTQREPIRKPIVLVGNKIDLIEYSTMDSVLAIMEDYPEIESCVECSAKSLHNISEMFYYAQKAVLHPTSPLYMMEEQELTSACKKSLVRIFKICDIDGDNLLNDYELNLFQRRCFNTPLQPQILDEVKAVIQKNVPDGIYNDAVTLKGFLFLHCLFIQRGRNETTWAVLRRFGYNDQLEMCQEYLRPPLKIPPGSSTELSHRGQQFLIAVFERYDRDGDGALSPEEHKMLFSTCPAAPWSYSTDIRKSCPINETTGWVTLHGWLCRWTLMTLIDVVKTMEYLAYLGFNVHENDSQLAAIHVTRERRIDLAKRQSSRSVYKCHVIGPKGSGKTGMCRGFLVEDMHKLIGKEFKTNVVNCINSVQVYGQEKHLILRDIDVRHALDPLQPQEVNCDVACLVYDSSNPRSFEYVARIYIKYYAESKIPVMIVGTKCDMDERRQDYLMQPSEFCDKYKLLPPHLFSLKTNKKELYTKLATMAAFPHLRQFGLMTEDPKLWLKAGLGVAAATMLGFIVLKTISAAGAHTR
Experiment: DMiro level in PD flies fed compound, Western blot
Format: in vivo, fly
Conditions: 2.5 μM, mutant LRRK2, PINK1 and SNCA flies
Description: FIG. 8. Related to FIG. 2-4. Miro1 Reducer in Human Cell and Fly Models. (A) Fibroblasts from Healthy-1 and PD-2 were treated, lysed, and blotted as indicated. Band intensities are normalized to those of GAPDH from the same blots and compared to “Healthy-1, no treatment”. n=4 independent experiments. (B) Fibroblasts from PD-2 were treated and immunostained as indicated. The intensity was quantified for each cell across 264-320 cells from 3 independent experiments, compared to “no treatment”. (C) Fibroblasts were treated, immunoprecipitated (IPed) with anti-Miro1, and blotted as indicated. Similar results were observed twice. (D) Similar as in (C), fibroblasts were treated as indicated, and IPed with anti-Miro1. The GTPase activity of the IPed Miro1 protein was measured as described in Method. […] The MitoSox intensity was quantified for each cell across 106-161 cells from 3 coverslips. […] The TMRM intensity was measured for each cell across 48-60 cells from 3 independent experiments, and expressed as a fraction of the mean of “Healthy-1, no treatment”. […] The movement (the intensity of non-yellow) was quantified for each cell as described in (Tsai et al., 2014) across 22-31 cells from 3 transfections. […] (1) Left: The percentage of TH-positive iPSC-derived neurons out of total cells (Dapi-positive) is calculated after immunocytochemistry under 20× as described in FIG. 3. […]

O=C(Nc1ccc(Nc2cc(-n3ccnc3)ncn2)cc1)Nc1cccc(F)c1 [Miro1 Reducer]
DMiro band intensity in PD flies: trend of DMiro reduction
